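Briefly, cells in 96-well plates were exposed to five compound concentrations for 48 h, and endpoints were estimated by linear interpolation. The concentration for full growth arrest is given as TGI.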 Some results are limits rather than exact numbers.

Our source for the TGI values is PubChem BioAssay (NCI).

Test in all cases: inhibition of tumour cell growth, NCI panel, 48 h
In assay [1] the test system is OVCAR-4 ovarian.
Assay [2] deals with SF-295 CNS.
For assay [3], the system named is PC-3 prostate.
Assay [4] has as its system HCT-116 colon.
For assay [5], the system named is RPMI-8226 leukemia.
In assay [6] the test system is NCI-H23 lung.
The subject of assay [7] is SNB-75 CNS.
Assay [8] concerns OVCAR-8 ovarian.

Turning to `NS(=O)(=O)c1ccc(N=Nc2nc3[nH]c(=O)[nH]c(=O)c3[nH]2)cc1`, the TGI in assay [1], in assay [2], in assay [3], in assay [4], in assay [5] and in assay [6] was greater than 100 µM throughout. The TGI in assay [7] and in assay [8] was greater than 100 µM throughout.

Consider `O=C1C2CC=CCC2C(=O)N1n1c(Cc2ccc(Cl)cc2)n[nH]c1=O` (stereo unspecified), for which the TGI in assay [1], in assay [2], in assay [3], in assay [4], in assay [5] and in assay [6] was greater than 100 µM throughout. Further, the TGI in assay [7] and in assay [8] was greater than 100 µM throughout.

On to `O=C(C=P(c1ccccc1)(c1ccccc1)c1ccccc1)c1ccc(-c2cccc([N+](=O)[O-])c2)s1`, for which the TGI in assay [1] was greater than 100 µM; in assay [2], greater than 100 µM; in assay [3], greater than 100 µM; in assay [4], greater than 100 µM; in assay [5], 54.9 µM; in assay [6] it was greater than 100 µM. Moreover, the TGI in assay [7] is 76.3 µM; in assay [8], greater than 100 µM.

With `Cc1c([N+](=O)[O-])ccc2c(NCCCN(C)C)ccnc12`, the TGI was 41 µM in assay [1]; 60.4 µM in assay [2]; 41.6 µM in assay [3]; 35.3 µM in assay [4]; greater than 100 µM in assay [5]; 34.6 µM in assay [6]. Further, the TGI in assay [7] and in assay [8] was greater than 100 µM in each case.

For the compound `COc1cc(OC)c(-c2ccc(OCc3ccccc3)c3c(OC)cc(C)cc23)c2c1C(C)=N[C@H](C)C2`, the TGI in assay [1] amounted to 4.01 µM; in assay [2], 3.78 µM; in assay [3] it was 3.9 µM; in assay [4], 3.97 µM; in assay [5], 3.61 µM; in assay [6], 4.23 µM. Besides, the TGI in assay [7] was determined as 4.04 µM; in assay [8], 3.68 µM.

In the case of `CCCCN(CCCC)CC(O)c1cc(-c2ccc(C(F)(F)F)cc2)nc(-c2ccc(C(F)(F)F)cc2)c1` (stereo unspecified), the TGI in assay [1], in assay [2], in assay [3], in assay [4], in assay [5] and in assay [6] was greater than 100 µM each time. Besides, the TGI in assay [7] and in assay [8] was greater than 100 µM throughout.

Take `Nc1ncnc2c1ccn2C/C=C\CO`: the TGI in assay [1], in assay [2], in assay [3], in assay [4], in assay [5] and in assay [6] was greater than 100 µM in each case. Besides, the TGI in assay [7] and in assay [8] was greater than 100 µM throughout.

As for `CC(C)(C)NC(NC(C)(C)C)=C(/C=C(/Cl)[N+](=O)[O-])[N+](=O)[O-]`, the TGI in assay [1], in assay [2], in assay [3], in assay [4], in assay [5] and in assay [6] was greater than 100 µM throughout. Also, the TGI in assay [7] is 87.2 µM; in assay [8], greater than 100 µM.

Regarding `O=C(O)CC(CC(=O)O)C(=O)O`, the TGI in assay [1], in assay [2], in assay [3], in assay [4], in assay [5] and in assay [6] was greater than 100 µM each time. Also, the TGI in assay [7] and in assay [8] was greater than 100 µM each time.

Consider `Oc1cn(-c2ccc(Cl)cc2)nc1-c1nnc(-c2ccccc2)o1`, for which the TGI in assay [1] was greater than 100 µM; in assay [2], 4.52 µM; in assay [3], greater than 66.6 µM; in assay [4], 1.14 µM; in assay [5] it was 31.9 µM; in assay [6] it was 1.01 µM. The TGI in assay [7] was greater than 100 µM; in assay [8], 14.2 µM.

As to `CC1(c2cccs2)CC(c2cccs2)=C(C#N)C(=C(C#N)C#N)N1` (stereo unspecified), the TGI in assay [1] came to 32.3 µM; in assay [2], 32.6 µM; in assay [3], 29.8 µM; in assay [4], 31.6 µM; in assay [5], 61.5 µM; in assay [6] it was 38.8 µM. Further, the TGI in assay [7] worked out at 33.2 µM; in assay [8], 42.9 µM.

As for `COC(=O)CCC1=CCC2(SC)C(=O)Nc3cccc1c32` (stereo unspecified), the TGI in assay [1], in assay [2], in assay [3], in assay [4], in assay [5] and in assay [6] was greater than 100 µM in each case. For the same compound, the TGI in assay [7] and in assay [8] was greater than 100 µM throughout.

For `COc1cc(/C=C2\C[C@H]3[C@@H]4CCc5cc(O)ccc5[C@H]4CC[C@]3(C)C2=O)cc(OC)c1OC`, the TGI in assay [1] amounted to 72.8 µM; in assay [2], 27.4 µM; in assay [3] it was 25.5 µM; in assay [4], 28.6 µM; in assay [5], 28.9 µM; in assay [6] it was 28.5 µM. The TGI in assay [7] came out at 26.4 µM; in assay [8] it was 30.1 µM.

Consider `CCCC[C@@H]1CCN2C[C@@H](O)[C@@H](O)[C@@H]2[C@H]1O`, for which the TGI in assay [1], in assay [2], in assay [3], in assay [4], in assay [5] and in assay [6] was greater than 100 µM in each case. In addition, the TGI in assay [7] and in assay [8] was greater than 100 µM each time.

`CN(Cc1cnc2nc(N)nc(N)c2n1)c1ccc(C(=O)NC(CCC(=O)NCCC(P(=O)(O)O)P(=O)(O)O)C(=O)O)cc1` (stereo unspecified): the TGI in assay [1], in assay [2], in assay [3], in assay [4], in assay [5] and in assay [6] was greater than 100 µM throughout. Moreover, the TGI in assay [7] and in assay [8] was greater than 100 µM each time.

Consider `O=C1NC(NNc2ccccc2)=N/C1=C\c1ccccc1O`, for which the TGI in assay [1] was greater than 100 µM; in assay [2], greater than 100 µM; in assay [3], 82 µM; in assay [4], greater than 100 µM; in assay [5], greater than 100 µM; in assay [6], greater than 100 µM. Further, the TGI in assay [7] and in assay [8] was greater than 100 µM in each case.

For the compound `CCCC(=O)n1[nH]c(=O)n(-c2ccc(Cl)cc2)c1=O`, the TGI in assay [1], in assay [2], in assay [3], in assay [4], in assay [5] and in assay [6] was greater than 100 µM throughout. Moreover, the TGI in assay [7] and in assay [8] was greater than 100 µM throughout.

Consider `CC(=O)c1ccc(NCc2cc(O)ccc2O)cc1`, for which the TGI is 34.4 µM in assay [1]; 34.6 µM in assay [2]; 41.3 µM in assay [3]; 37.4 µM in assay [4]; greater than 100 µM in assay [5]; 48.9 µM in assay [6]. The results for the TGI in assay [7] and in assay [8] were 28 µM and 88.1 µM, respectively.

`N=C1/C(=C/c2ccc(F)cc2)C(=O)N=C2SC=NN12`: the TGI in assay [1], in assay [2], in assay [3], in assay [4], in assay [5] and in assay [6] was greater than 100 µM throughout. Moreover, the TGI in assay [7] and in assay [8] was greater than 100 µM each time.

As for `c1nc(OCC2CCCCC2)c2[nH]cnc2n1`, the TGI in assay [1], in assay [2], in assay [3], in assay [4], in assay [5] and in assay [6] was greater than 100 µM throughout. Also, the TGI in assay [7] and in assay [8] was greater than 100 µM throughout.

On to `N#Cc1c(-c2ccc(Cl)cc2)c2c([nH]c1=O)-c1ccccc1SC2`, for which the TGI was greater than 100 µM in assay [1]; greater than 100 µM in assay [2]; greater than 100 µM in assay [3]; greater than 100 µM in assay [4]; 98.8 µM in assay [5]; greater than 100 µM in assay [6]. Also, the TGI was 69.5 µM in assay [7] and greater than 100 µM in assay [8].

With `C=C(CCC/C(C)=C/C=C/[C@]1(C)CCCc2ccoc21)CC(=O)O`, the TGI in assay [1], in assay [2], in assay [3], in assay [4], in assay [5] and in assay [6] was greater than 100 µM throughout. For the same compound, the TGI in assay [7] and in assay [8] was greater than 100 µM throughout.

In the case of `COc1ccccc1/C(=N\OCCC(=O)O)c1cccs1`, the TGI in assay [1], in assay [2], in assay [3], in assay [4], in assay [5] and in assay [6] was greater than 100 µM in each case. For the same compound, the TGI in assay [7] and in assay [8] was greater than 100 µM throughout.

`CCOC(=O)c1c(NC(=O)c2cccs2)sc2c1CCCC2`: the TGI in assay [1], in assay [2], in assay [3], in assay [4], in assay [5] and in assay [6] was greater than 100 µM throughout. The TGI is 81.8 µM in assay [7] and greater than 100 µM in assay [8].

For the compound `Nc1c2c(nc3cc(F)c(F)cc13)CCC2`, the TGI in assay [1], in assay [2], in assay [3], in assay [4], in assay [5] and in assay [6] was greater than 100 µM each time. Further, the TGI in assay [7] and in assay [8] was greater than 100 µM in each case.

As for `O=C(O)CC1NC(/C(=C/c2ccccc2)NC(=O)c2ccccc2)OC1=O` (stereo unspecified), the TGI in assay [1] is greater than 100 µM; in assay [2], greater than 100 µM; in assay [3] it was greater than 100 µM; in assay [4], 42.9 µM; in assay [5] it was 63.4 µM; in assay [6], greater than 100 µM. In addition, the figures for the TGI in assay [7] and in assay [8] were 74 µM and 66.5 µM, respectively.

In the case of `C/C(=N\NC(=S)N1CCCCC1)c1nc2ncccc2[nH]1`, the TGI in assay [1] is greater than 100 µM; in assay [2], 88.7 µM; in assay [3], greater than 100 µM; in assay [4], 22.7 µM; in assay [5], 30.1 µM; in assay [6], 57.5 µM. Further, the TGI in assay [7] was greater than 100 µM; in assay [8] it was 34.8 µM.

On to `O=C(NC(Cc1c[nH]c2ccccc12)C(=O)Nc1ccc(Br)cc1)OCc1ccccc1` (stereo unspecified), for which the TGI in assay [1] turned out to be 23.6 µM; in assay [2] it was 23.9 µM; in assay [3] it was 24.5 µM; in assay [4], 23.7 µM; in assay [5], 34.2 µM; in assay [6] it was 26.5 µM. The TGI in assay [7] amounted to 34.7 µM; in assay [8] it was 30.3 µM.

Turning to `COC(=O)C1=C(C)NC2=C(C(=O)c3ccccc32)C1c1cn(-c2ccccc2)nc1-c1ccccc1` (stereo unspecified), the TGI in assay [1], in assay [2], in assay [3], in assay [4], in assay [5] and in assay [6] was greater than 100 µM throughout. The TGI in assay [7] and in assay [8] was greater than 100 µM throughout.

In the case of `COC(=O)c1ccc(C(=O)NC(Cc2ccc(Oc3cc(CC(NC(=O)c4ccccc4C(=O)OC)C(=O)OC)ccc3OC)cc2)C(=O)OC)cc1` (stereo unspecified), the TGI in assay [1], in assay [2], in assay [3], in assay [4], in assay [5] and in assay [6] was greater than 100 µM throughout. The TGI in assay [7] and in assay [8] was greater than 100 µM each time.

In the case of `OC1(C(F)(F)F)OCCN=C1C(F)(F)F` (stereo unspecified), the TGI in assay [1], in assay [2], in assay [3], in assay [4], in assay [5] and in assay [6] was greater than 100 µM each time. The TGI in assay [7] and in assay [8] was greater than 100 µM each time.

With `OCCCCCCCCCCCOc1ccc(C2OCC3(CO2)COC(c2ccc(OCCCCCCCCCCCO)cc2)OC3)cc1` (stereo unspecified), the TGI in assay [1], in assay [2], in assay [3], in assay [4], in assay [5] and in assay [6] was greater than 50 µM each time. The TGI in assay [7] and in assay [8] was greater than 50 µM each time.
